Holding throughout (test): NCI tumour cell line growth inhibition, 48 h
For assay [1], the system named is MDA-N.
Assay [2] relates to DLD-1 colon.
In assay [3] the test system is DMS 114 small cell lung.
In assay [4] the test system is HOP-18 NSCLC.
For assay [5], the system named is LXFL 529 NSCLC.
Assay [6] concerns M19-MEL melanoma.
Assay [7] concerns RXF-631 renal.
Assay [8] relates to SNB-78 CNS.
Assay [9] has as its system XF 498 CNS.
In assay [10] the test system is P388 leukemia.
Assay [11] has as its system P388/ADR leukemia.
The subject of assay [12] is SN12K1 renal.

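Five compound concentrations were applied to cells in 96-well plates for 48 hours; endpoints were derived by simple linear interpolation of the resulting dose-response curve. GI50: concentration for 50% inhibition of growth. TGI marks complete inhibition of growth.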

For `CC1=Cc2ccc(C)cc2C(=O)C1=O`, the TGI in assay [1] was 11.9 µM.
`N/N=C1\C(=O)N(c2ccc(Cl)cc2Cl)C(=O)C(=O)C1c1nc2ccccc2o1` (stereo not given): the TGI in assay [2], in [3], in [4], in assay [5], in [6] and in [7] was more than 100 µM each time. The compound also gave a TGI in [8] of more than 100 µM.
For the compound `c1ccc2c(c1)oc1ccc3nsnc3c12`, the TGI in assay [2], in assay [3], in assay [4], in assay [5], in assay [6] and in [7] was more than 100 µM in each case.
Regarding `O=C1/C(=C/c2ccccc2)CN(C(=O)CCN2CCCC2)C/C1=C\c1ccccc1`, the TGI was 3.12 µM in assay [2]; 4.66 µM in assay [3]; 9.09 µM in assay [4]; 4.36 µM in [5]; 3.79 µM in [6]; 1.46 µM in assay [1]. Further, the results for the TGI in assay [7], in [8] and in [9] were 13.2 µM, 16.5 µM and 16.8 µM, respectively.
`N.N.N.N.N.O=[N+]([O-])[O-].[Co+3].[O-][Cl+3]([O-])([O-])[O-]`: the GI50 in assay [2], in [5] and in [8] was more than 100 µM throughout. In addition, the TGI in [2], in assay [5] and in [8] was more than 100 µM in each case.
`C1CC2CN(CCCN3CCOCC3)C(C1)O2` (stereo not given): the TGI in assay [1] was more than 100 µM.
On to `COc1ccc(/C(Cl)=C/c2cc(OC)ccc2OC)cc1`, for which the TGI in assay [2], in assay [3], in [4], in assay [5], in [6] and in assay [8] was more than 100 µM throughout. In [9], this compound showed a TGI of more than 100 µM.
On to `C=CCC1=C(C)C[C@@H]2CCC(=O)C=C12`, for which the TGI in assay [3], in assay [5], in assay [6], in assay [7] and in assay [8] was more than 100 µM each time.
Regarding `COc1ccc(CCn2c(=O)c3ccccc3n(C)c2=O)cc1`, the TGI in assay [2], in assay [3], in [5], in [6], in [8] and in assay [9] was more than 100 µM each time.
Regarding `NNC(=O)C(=O)N/N=C1\CCC(=O)CC1C(=O)CCC(=O)Nc1ccc(Cl)cc1` (stereo not given), the TGI in assay [2], in [4], in [5], in assay [6] and in assay [8] was more than 100 µM each time.
Turning to `COc1ccc(CCc2cc(OC)cc(OC)c2)cc1`, the TGI in assay [2] was more than 100 µM; in assay [3], 24.6 µM; in assay [4] it was more than 100 µM; in assay [5], more than 100 µM; in [6] it was more than 100 µM; in assay [7], more than 72.7 µM. Further, the results for the TGI in [8] and in assay [9] were more than 100 µM and 83.8 µM, respectively.
For the compound `C=CCO/N=C(\OC(=O)c1ccc([N+](=O)[O-])cc1)c1ccccc1`, the TGI in assay [2], in [3], in [4], in assay [5], in assay [6] and in assay [7] was more than 100 µM in each case. Further, in assay [8], the TGI is more than 100 µM.
Turning to `C1CC[N-]CC1.CC(=N\O)/C(C)=N/O.CC(=N\O)/C(C)=N/O.OC1[CH-]CCCC1.[Co+2]`, in [1], the GI50 is 40.9 µM and the TGI was more than 100 µM.
As to `CC(=O)O[C@]1(C)OC(=O)[C@@H](CC(C)C)N1[N+](=O)[O-]`, the TGI in assay [2], in assay [3], in assay [4], in assay [5], in assay [6] and in assay [8] was more than 100 µM each time.
As to `Cc1c(NC(=S)NC(=O)c2ccc([N+](=O)[O-])cc2)c(=O)n(-c2ccccc2)n1C`, the TGI in assay [2], in assay [3], in assay [4], in assay [5], in [6] and in [8] was more than 100 µM in each case.
As for `CC(C)=CCC(OC(=O)C=C(C)C)C1=CC(=O)c2c(O)ccc(O)c2C1=O` (stereo not given), the TGI turned out to be 0.674 µM in assay [2]; 3.03 µM in assay [3]; 7.58 µM in assay [4]; 1.87 µM in [6]; 2.77 µM in assay [10]; 19.5 µM in [11]. For the same compound, the values for the TGI in assay [12], in assay [8] and in assay [9] were 2.93 µM, 5.88 µM and 1.74 µM, respectively.
Regarding `CC1=NN(C(=O)c2ccc(Cl)cc2)C(=O)/C1=C/c1ccccc1O`, the TGI in assay [2], in assay [3], in assay [5], in assay [6], in [8] and in assay [9] was more than 100 µM in each case.
Consider `O=C1CC(c2[nH]nc3ccccc23)C(=O)N1c1ccccc1` (stereo not given), for which the TGI in assay [2], in [3], in assay [4], in assay [5], in [6] and in assay [1] was more than 100 µM in each case. Also, the TGI in assay [7], in [8] and in [9] was more than 100 µM each time.
In [1], `CN(C)CCSS(=O)(=O)O` displayed a TGI of more than 100 µM.
With `O=S(=O)(NCn1ccc2ccccc21)c1ccccc1`, the TGI in assay [2], in assay [4], in assay [5], in assay [6], in assay [7] and in [8] was more than 100 µM in each case. This compound also displayed a TGI in assay [9] of more than 100 µM.
In assay [1], `COc1cc2c(cc1O)CC1c3c(cc(O)c(OC)c3-2)CCN1C` (stereo not given) returned a TGI of more than 100 µM.
`Cc1ccc(N=Nc2c(O)ccc3ccccc23)cc1` returned a TGI in assay [1] of more than 100 µM.
On the same count and under the same terms, as for `Cn1c(-c2ccc(/C=N/NC(=S)N/N=C/c3ccc(-c4c[n+]5ccsc5n4C)cc3)cc2)c[n+]2ccsc12`, the figure is more than 100 µM.
Consider `O=c1ncccn1C1OC(CO)C(O)C1O` (stereo not given), for which the TGI in assay [2], in [3], in assay [4], in [5], in assay [6] and in [8] was more than 100 µM each time.
For the compound `COC(=O)c1c2c(cc3c1CC1(Cc4cc5c(c(C(C)=O)c4C1)CCC5)C3)CCC2` (stereo not given), the TGI in assay [2], in assay [3], in assay [4], in [5], in assay [6] and in assay [8] was more than 100 µM throughout. In assay [9], this compound registered a TGI of more than 100 µM.
For the compound `Cc1cccc(C)c1NC(=O)CCc1nc(=S)[nH][nH]1`, the TGI in [2], in assay [3], in assay [5], in assay [6], in assay [7] and in assay [8] was more than 100 µM in each case. This compound also came in with a TGI in [9] of more than 100 µM.
With `CC(C)Cc1ccc(C(C)CC2=CCC(CN(C)C)C2=O)cc1` (stereo not given), the TGI was 5.61 µM in [2]; 10.9 µM in [3]; 32.6 µM in [4]; 3.11 µM in assay [5]; 13.8 µM in assay [6]; 17.9 µM in assay [1]. The TGI in [10] was 6.34 µM; in assay [11] it was more than 100 µM; in assay [7] it was 30.5 µM; in [12], 11.7 µM; in assay [8] it was 14.7 µM.
For `CC(C)(C)C(=CS(=O)/N=C/c1ccccc1)C(C)(C)C` (stereo not given), the TGI in assay [2] is more than 100 µM; in assay [3], 82.1 µM; in assay [5], 76.5 µM; in assay [6] it was more than 100 µM; in assay [7] it was more than 100 µM; in assay [8] it was more than 100 µM. The TGI in [9] stood at 89.7 µM.
For `COc1ccc(C(=O)C(CC2C(=O)NC(=O)NC2=O)c2ccc(OC)cc2)cc1` (stereo not given), the TGI in [2], in [3], in assay [4], in assay [5], in assay [6] and in [8] was more than 100 µM each time. The TGI in assay [9] was more than 100 µM.
In the case of `Cc1cc(N(CCC#N)CCC#N)ccc1N=Nc1ccc(Br)cc1`, the TGI in assay [2] is more than 100 µM; in assay [3] it was more than 71.3 µM; in assay [4], more than 100 µM; in assay [5] it was more than 100 µM; in assay [6], more than 100 µM; in [7], 25.1 µM. Further, the TGI in [8] was more than 65.8 µM; in assay [9], 13.3 µM.
In the case of `CC1CCSC(N(C(=O)N(C)c2ccccc2)c2ccccc2)=N1` (stereo not given), the TGI in [2], in assay [3], in assay [5], in assay [6], in assay [8] and in [9] was more than 100 µM each time.
In [1], `CC1=Nc2ccccc2/C1=C\c1c(C)[nH]c2ccccc12` registered a TGI of 37.4 µM.
The same measure, in the same setting: as for `c1ccc2c(c1)SCCCSCCSCCCS2`, the figure is more than 100 µM; as for `COC(=O)C1C(O)C(C)C(O)C(C)C=C(C)C2=C3C(=C(C)C(=O)c4c(O)c(c(C)c(OC(C)=O)c43)NC(=O)C(C)=C/C=C\C(C)C(O)C(C)C1O)OCO2` (stereo not given), 31.8 µM.
Turning to `CC(C)CCCC(C)[C@H]1CCC2[C@@H]3CCC4Nc5c(cnn5-c5ccccc5)C[C@]4(C)C3CC[C@@]21C` (stereo not given in full), the TGI in assay [2] is more than 100 µM; in [3], more than 100 µM; in [4], more than 100 µM; in assay [5], more than 100 µM; in assay [6], more than 100 µM; in assay [7], 38.4 µM. For the same compound, the TGI in assay [8] and in [9] was more than 100 µM in each case.
`COc1cc(C)c(C2NC(=O)c3ccccc3N2)cc1C` (stereo not given) showed a TGI in assay [1] of 0.128 µM.
In the case of `CCOC(=O)CCn1ncc(Cl)c(Cl)c1=O`, the TGI is 21.5 µM in assay [2]; 4.3 µM in assay [3]; 11.7 µM in [4]; 10.5 µM in assay [5]; 8.35 µM in assay [6]; 7.92 µM in assay [7]. Besides, the TGI in assay [8] stood at 22.1 µM; in [9] it was 37.9 µM.
Consider `CC(C)OP(=O)(OC(C)C)/C(N)=N/Nc1ccc([N+](=O)[O-])cc1`, for which the TGI in assay [2], in assay [3], in [5], in assay [6], in assay [8] and in assay [9] was more than 100 µM each time.
On to `C[Si](C)(C)/C=C\CCO`, for which the TGI in assay [2], in [3], in [4], in assay [5], in [6] and in assay [7] was more than 100 µM throughout. Further, the TGI in [8] and in assay [9] was more than 100 µM in each case.
In assay [1], `NN=C(CC(O)(C(F)(F)Cl)C(F)(F)Cl)CC(O)(C(F)(F)Cl)C(F)(F)Cl` displayed a TGI of more than 10 µM.
As to `CC(=O)[O-].[Mn+3].[O-]c1ccccc1C=NCCNCCN=Cc1ccccc1[O-]`, the GI50 in assay [4], in assay [5], in assay [6] and in [8] was more than 100 µM in each case. Moreover, the TGI in assay [4], in assay [5], in [6] and in assay [8] was more than 100 µM in each case.
`O=c1[nH]c2ccccc2n1CCCN1CCC(n2c(=O)[nH]c3cc(Cl)ccc32)CC1`: in [1], the TGI was 29.4 µM.

(Values after PubChem BioAssay (NCI).)
